Reference: publication PMC9895061 (Signal Transduction and Targeted Therapy, 2023)
Like-named read-outs stand apart in the source and are kept apart here.

Tests used:
[1] = tested on: SW620-gNS xenografts; experiment: SW620-gNS xenograft tumor growth in nude mice; details: 2 mg/kg intraperitoneally, 5 days per week for 2 weeks
[2] = tested on: HCT116 cells; experiment: ROS measurement by DCFH-DA staining and flow cytometry, HCT116; format: cell-based, human; details: 2 μM, 24 h
Method: (§1) […]. DCFH-DA was deacetylated by intracellular esterase to a non-fluorescent compound, which was later oxidized by intracellular ROS to the fluorescent DCF. DCF fluorescence was detected using flow cytometer and data was analyzed using FlowJo software (version 10.4).
g, h ROS measurement of SW620 (g) and HCT116 (h) cells with compounds treatment. […].

[3] = tested on: HCT116 cells; experiment: Cell viability by trypan blue staining, HCT116; details: for viability at 0.5 µM: Homo sapiens, HCT-116, 24 h, read-out: cells viability, HCT116
Method: Total cell number and viability were counted with trypan blue staining. To measure apoptosis, cells were harvested and followed by flow cytometric analysis using the Annexin V-FITC / PI apoptosis detection kit according to the manufacturer’s protocol. Cell apoptosis was analyzed by FlowJo software.
e, f Cell viability were measured by trypan-blue staining.

[4] = tested on: gPRDX1 SW620 cells; experiment: Proliferation IC50 in PRDX1 knockdown (gPRDX1) SW620 cells; format: cell-based; details: Homo sapiens, SW-620, 24 h, read-out: IC50 against the proliferation of PRDX1 knockdown (gPRDX1) SW620 cells
Method: (§2) To generate PRDX1 knockdown cell lines, gRNA targeting […] was cloned into the vector pHBLV-U6-gRNA-EF1-CAS9-PURO from HanBio. The gRNA, psPAX2, and pMD2·G plasmids were mixed and co-transfected into HEK293T cells using Lipofectamine 2000 (Thermo Fisher Scientific). Medium with lentiviruses was collected and filtered through 0.45 μm filters at 48 h after transfection. Lentiviruses was used to infect the indicated cells with 8 μg/mL polybrene (Sigma-Aldrich) for 2 days. The infected cells were selected in medium containing 2 μg/mL puromycin (Sigma-Aldrich) for 3 days, and PRDX1 protein expression level were examined by western blot.
(§3) SW620 or HCT116 cells were seeded into 96-well plate overnight at 5000 cells per well or 4000 cells per well respectively. […] Cell numbers were assessed using the CCK-8 reagent at OD 450. The IC50 values were calculated by fitting the data points with the dose-response function in GraphPad.

[5] = tested on: gNS SW620 cells; experiment: Proliferation IC50 in scrambled (gNS) SW620 cells; format: cell-based; details: Homo sapiens, SW-620, 24 h, read-out: IC50 against the proliferation of scrambled (gNS) SW620 cells
Method: as §2, §3

[6] = tested on: NCM460 cells; experiment: ROS measurement by DCFH-DA staining and flow cytometry, NCM460; format: cell-based, human; details: 2 μM, 24 h
Method: as §1
b ROS measurement of NCM460 cells with compounds treatment. […].

[7] = tested on: HCT116 cells; experiment: CCK-8 proliferation assay, HCT116; format: cell-based; details: Homo sapiens, HCT-116; 24 h treatment
Method: as §3

[8] = target: T1, PRDX2 (Homo sapiens, UniProt P32119); experiment: Trx-TrxR-NADPH coupling peroxiredoxin activity assay, PRDX2; format: biochemical
T1 sequence (P32119 1-198): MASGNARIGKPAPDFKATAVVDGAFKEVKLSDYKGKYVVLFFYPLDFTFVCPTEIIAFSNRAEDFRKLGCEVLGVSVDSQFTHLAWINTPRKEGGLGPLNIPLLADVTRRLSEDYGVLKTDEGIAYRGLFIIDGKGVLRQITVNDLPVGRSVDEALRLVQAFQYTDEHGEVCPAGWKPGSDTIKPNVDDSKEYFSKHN

[9] = tested on: nude mice; experiment: Acute toxicity test (percent survival within 2 weeks); format: in vivo; details: for Survival number, female (n=4) / Survival number, male (n=4) / Survival rate, female (n=4) / Survival rate, male (n=4): within 2 weeks
Method: For acute toxicity test, Nude mice were randomly divided into five groups (four female mice and four male mice in each group). […] The percent survival within 2 weeks was recorded in Supplementary Table 2 and survival curve.

[10] = target: T2, PRDX5 (Homo sapiens, UniProt P30044); experiment: Trx-TrxR-NADPH coupling peroxiredoxin activity assay, PRDX5; format: biochemical
T2 sequence (P30044 53-214): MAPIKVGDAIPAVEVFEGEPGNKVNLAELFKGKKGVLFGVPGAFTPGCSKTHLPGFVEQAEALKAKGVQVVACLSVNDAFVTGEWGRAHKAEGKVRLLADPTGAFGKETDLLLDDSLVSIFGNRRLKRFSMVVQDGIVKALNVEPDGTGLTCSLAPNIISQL

[11] = tested on: NCM460 cells; experiment: Proliferation IC50 in NCM460; format: cell-based; details: Homo sapiens, NCM460, 24 h, read-out: IC50 of proliferation, NCM460
[12] = Body weight of xenograft-bearing nude mice; details: 2 mg/kg, day 12, average of gNS and gPRDX1 groups
[13] = tested on: SW620 cells; experiment: CCK-8 proliferation assay, SW620; format: cell-based; details: Homo sapiens, SW-620; 24 h treatment
Method: as §3

[14] = target: T3, PRDX4 (Homo sapiens, UniProt Q13162); experiment: Trx-TrxR-NADPH coupling peroxiredoxin activity assay, PRDX4; format: biochemical; details: for inhibition of the peroxidase activity of PRDX4 (in words): recombinant PRDX4
T3 sequence (Q13162 38-271): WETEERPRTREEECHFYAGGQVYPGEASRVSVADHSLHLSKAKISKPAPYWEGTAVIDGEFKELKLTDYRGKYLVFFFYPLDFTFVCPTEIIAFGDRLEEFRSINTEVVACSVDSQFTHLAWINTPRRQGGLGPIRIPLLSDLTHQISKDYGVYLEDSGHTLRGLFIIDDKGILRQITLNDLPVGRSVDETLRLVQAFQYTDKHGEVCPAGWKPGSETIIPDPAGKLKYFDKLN

| SMILES | tumor progression of SW620-gNS xenografts (in words) [1] | ROS-positive rate, HCT116 [2] | viability at 0.5 µM [3] | IC50 [4] | IC50 [5] | intracellular ROS positive rate, NCM460 [6] | IC50 [7] | Survival number, female (n=4) ([9]; 10 mg/kg intraperitoneally) | Survival number, male (n=4) ([9]; 10 mg/kg intraperitoneally) | Survival rate, female (n=4) ([9]; 10 mg/kg intraperitoneally) | Survival rate, male (n=4) ([9]; 10 mg/kg intraperitoneally) | Survival number, female (n=4) ([9]; 20 mg/kg intraperitoneally) | Survival number, male (n=4) ([9]; 20 mg/kg intraperitoneally) | Survival rate, female (n=4) ([9]; 20 mg/kg intraperitoneally) | Survival rate, male (n=4) ([9]; 20 mg/kg intraperitoneally) | IC50 [11] | body weight loss as compared to DMSO control [12] | IC50 [13] | inhibition of the peroxidase activity of PRDX4 (in words) [14] | other results |
| --- | --- | --- | --- | --- | --- | --- | --- | --- | --- | --- | --- | --- | --- | --- | --- | --- | --- | --- | --- | --- |
| COC(=O)[C@H](C)NC(=O)N[C@]1(C)CC[C@]2(C)CC[C@]3(C)C4=CC=C5C(=CC(=O)C(O)=C5C)[C@]4(C)CC[C@@]3(C)[C@@H]2C1 [19-048, Methyl (((2R,4aS,6aS,12bR,14aS,14bR)-10-hydroxy-2,4a,6a,9,12b,14a-hexamethyl-11-oxo-1,2,3,4,4a,5,6,6a,11,12b,13,14,14a,14b-tetradecahydropicen-2-yl)carbamoyl)-L-alaninate] | suppressed the overall tumor progression | 91.7% | ~80% | 431 ± 9.14 nM | 529 ± 6.69 nM | 29.13% | 816 nM | 4 | 4 | 100% | 100% | 0 | 4 | 0% | 100% | 2230 nM | 7.3% | 528 nM | no obvious inhibition | cell viability at high concentrations, HCT116 (in words) ([3]; 1, 2 μM, 24 h, trypan blue): significantly decreased cell viability; inhibition of the peroxidase activity of PRDX2 (in words) ([8]; recombinant PRDX2): no obvious inhibition; IC50 ([8]; recombinant PRDX2, 1.5 h incubation, mean ± SEM, triplicate, read-out: IC50 against the peroxidase activity of PRDX2): > 100000 nM; survival, all mice (male and female) ([9]; 10 mg/kg, within two weeks): 100%; inhibition of the peroxidase activity of PRDX5 (in words) ([10]; recombinant PRDX5): no obvious inhibition; IC50 ([10]; recombinant PRDX5, 1.5 h incubation, mean ± SEM, triplicate, read-out: IC50 against the peroxidase activity of PRDX5): > 100000 nM; IC50 ([14]; recombinant PRDX4, 1.5 h incubation, read-out: IC50 against the peroxidase activity of PRDX4): > 100000 nM |
| CC1=C(O)C(=O)C=C2C1=CC=C1[C@@]2(C)CC[C@@]2(C)[C@@H]3C[C@](C)(C(=O)O)CC[C@]3(C)CC[C@]12C [Celastrol, reference compound] | suppressed the overall tumor progression | 88.4% | ~80% | 494 ± 10.8 nM | 634 ± 11.3 nM | 26.5% | 894 nM | 0 | 1 | 0% | 25% | 0 | 0 | 0% | 0% | 2660 nM | 11.2% | 690 nM | no obvious inhibitory effect | IC50 [8]: 3790 ± 260 nM; survival, all mice (male and female), in words ([9]; 20 mg/kg, within two weeks): All the mice died; IC50 [10]: 2300 ± 130 nM; IC50 [14]: > 100000 nM |
